Source: US20200270309A1, “MALEIMIDE GROUP-MODIFIED ANGIOGENESIS INHIBITOR HM-1 AND USE THEREOF” (NANJING ANJI BIOLOGICAL TECHNOLOGY CO., LTD, priority 2017, published 2020)
Marks after values point to notes of the source that are not given here. Peptide text beside a SMILES is read from it. * marks the point of attachment. X54 = O=C1C=CC(=O)N1c1cccc(CCCCCCC(=O)*)c1; X71 = O=C1C=CC(=O)N1c1cccc(CCCCCC(=O)*)c1

Assays:
[1] = Half-lives and pharmacokinetic parameters of polypeptides vs HM-1; conditions: in vivo; for half-life: T1/2β (half-life)
[2] = system: HUVECs; assay: Transwell migration inhibition on HUVECs; format: cell-based, human; conditions: for Inhibition rate (%): HUVEC migration vs blank control; for Cell migration number (Mean ± SD): HUVECs, transwell, 24 h
[3] = system: xylene-induced ear swelling; assay: Xylene-induced mouse ear swelling; format: in vivo; conditions: Kunming mice, injected once a day for 5 days; for Swelling degree / Swelling degree (mg): right minus left ear piece weight 2 h after xylene; for Inhibition rate (%): xylene-induced ear swelling
How it was run: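 Ear pieces punched and weighed 2 h after xylene (0.05 mL, right ear only; left ear as normal) gave swelling degree (right − left weight) and swelling rate (degree/left weight ×100%). Kunming mice received injections daily for 5 consecutive days, xylene applied 1 h after final dose.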

[4] = system: collagen-induced arthritis; assay: Mouse collagen-induced arthritis (CIA) animal model; format: in vivo; conditions: DBA/1 mice CIA model, dose 4.0 mg/kg, subcutaneous from day 30, n=10; for Clinical score: highest score 16
[5] = system: human retinal capillary endothelial cells (HRCECs); assay: MTT proliferation inhibition on HRCECs; format: cell-based; conditions: 48 h; for A570 nm-A630 nm: mean±SD
How it was run: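 HRCECs seeded at 3.0×10^4 cells/mL, adhered overnight, then exposed to polypeptide for 48 h at 37 °C, 5% CO2. MTT added 4 h, formazan dissolved in DMSO, absorbance 570/630 nm; PIR (%) = 1 − treated/negative control, mean±SD of three independent runs.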

[6] = system: corneal neovascularization; assay: Corneal neovascularization induced by alkali burn in BALB/c mice; format: in vivo; parameters: Inhibition rate (corneal neovascularization): concentration or dose not given beside the values; conditions: day 14 after alkali burn, vitreous injection once a day for 1 week
[7] = system: choroidal neovascularization; assay: Choroidal neovascularization in rats (laser photocoagulation, FFA); format: in vivo; conditions: BN rats
How it was run: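 Male BN rats aged 6-8 weeks were given 8 krypton-laser spots around the optic disc (647.1 nm, 350 mW, 50 μm, 0.05 s). Once the model was confirmed, groups of 5 got daily intravitreal compound at 0.05 μM or saline for 1 week. FFA followed at 3, 7, 14 and 28 days after dosing.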

[8] = system: retinal neovascularization (OIR model); assay: Retinal vessels in OIR mice; format: in vivo, C57/B16 mice; conditions: for Area of neovascular plexus (mm^2): dose 0.05 μM in the vitreous chamber on day 13, retinal vessels evaluated on day 17; for Inhibition rate (%): dose 0.05 μM in the vitreous chamber on day 13, retinal vessels evaluated on day 17, vs negative control
How it was run: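 C57/B16 pups were held in 75% oxygen from postnatal day 7 to 12, then returned to room air. On day 13 they received intravitreal saline or compound. On day 17 perfused vessels were labelled by Texas red tomato agglutinin injected into the left ventricle (5 min circulation) and retinal vasculature assessed.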

[9] = day 3 after administration, total light spot number was 297, 0.05 μM in the vitreous chamber once a day for 1 week
[10] = day 7 after administration, total light spot number was 186, 0.05 μM in the vitreous chamber once a day for 1 week
[11] = day 14 after administration, total light spot number was 137, 0.05 μM in the vitreous chamber once a day for 1 week
[12] = day 28 after administration, total light spot number was 69, 0.05 μM in the vitreous chamber once a day for 1 week

| SMILES | AUC(0-inf) [1] [µg·h/mL] | MRT inf [1] [h] | clearance [1] [L/h/kg] | half-life [1] [h] | Inhibition rate (%) ([2]; dose 0.05 μM) | Inhibition rate (%) ([2]; dose 0.1 μM) | Inhibition rate (%) ([2]; dose 0.2 μM) | Cell migration number (Mean ± SD) ([2]; dose 0.05 μM) | Cell migration number (Mean ± SD) ([2]; dose 0.1 μM) | Cell migration number (Mean ± SD) ([2]; dose 0.2 μM) | Swelling degree ([3]; dose 2 mg/kg) [mg] | Inhibition rate (%) ([3]; dose 2 mg/kg) | Inhibition rate (%) ([3]; dose 4 mg/kg) | Swelling degree (mg) ([3]; dose 8 mg/kg) | Inhibition rate (%) ([3]; dose 8 mg/kg) | Joint swelling degree (mm) [4] [mm] | Left and right paw swelling degree (mm) [4] [mm] | Clinical score [4] | Inhibition rate (%) ([5]; dose 0.05 μM) [%*] | A570 nm-A630 nm ([5]; dose 0.05 μM) | also measured |
| --- | --- | --- | --- | --- | --- | --- | --- | --- | --- | --- | --- | --- | --- | --- | --- | --- | --- | --- | --- | --- | --- |
| C[C@H](NC(=O)CNC(=O)[C@H](CCCNC(=N)N)NC(=O)CCCCCc1cccc(N2C(=O)C=CC2=O)c1)C(=O)N[C@@H](CC(=O)O)C(=O)N[C@@H](CCCNC(=N)N)C(=O)N[C@@H](C)C(=O)NCC(=O)NCC(=O)NCC(=O)NCC(=O)N[C@@H](CCCNC(=N)N)C(=O)NCC(=O)N[C@@H](CC(=O)O)C(=O)O [X29] (X71-RGADRAGGGGRGD-OH) | 32.1 ± 8.03 | 57.6 ± 10.6 | 0.0311 | 39.91 ± 0.25 | 46.37 | 50.43 | 53.84 | 574.88 ± 55.42 | 531.34 ± 47.59 | 494.73 ± 56.78 | 5.43 ± 0.91 | 12.84 | 20.39 | 3.86 ± 0.45** mg | 38.04 | 0.81 ± 0.15 | 0.71 ± 0.13 | 8.98 ± 1.44 | 52.67 | 0.6256 ± 0.09549 | Swelling degree (mg) ([3]; dose 4 mg/kg): 4.96 ± 0.1* mg; Inhibition rate (%) ([5]; dose 0.1 μM): 58.02%**; A570 nm-A630 nm ([5]; dose 0.1 μM): 0.5549 ± 0.02011; Inhibition rate (%) ([5]; dose 0.2 μM): 61.03%*; A570 nm-A630 nm ([5]; dose 0.2 μM): 0.5151 ± 0.01135; Inhibition rate (corneal neovascularization) [6]: 54.98%; MVD (corneal microvessel density) [6]: 30.27 ± 4.918; CNV Incidence (%) [7, 9]: 54.21%; Leakage Light spot number [7, 9]: 161; CNV Incidence (%) [7, 10]: 45.70%; Leakage Light spot number [7, 10]: 85; CNV Incidence (%) [7, 11]: 40.88%; Leakage Light spot number [7, 11]: 56; CNV Incidence (%) [7, 12]: 39.13%; Leakage Light spot number [7, 12]: 27; Area of neovascular plexus (mm^2) [8]: 0.109 ± 0.012 mm^2; Inhibition rate (%) [8]: 48.58%* |
| C[C@H](NC(=O)CNC(=O)[C@H](CCCNC(=N)N)NC(=O)CCCCCCc1cccc(N2C(=O)C=CC2=O)c1)C(=O)N[C@@H](CC(=O)O)C(=O)N[C@@H](CCCNC(=N)N)C(=O)N[C@@H](C)C(=O)NCC(=O)NCC(=O)NCC(=O)NCC(=O)N[C@@H](CCCNC(=N)N)C(=O)NCC(=O)N[C@@H](CC(=O)O)C(=O)O [X30] (X54-RGADRAGGGGRGD-OH) | 28.3 ± 6.88 | 50.8 ± 10.3 | 0.0353 | 35.2 ± 0.37 | 41.12 | 53.55 | 53.58 | 631.10 ± 64.04 | 497.88 ± 65.38 | 497.56 ± 68.24 | 5.19 ± 0.57 | 16.69 | 18.62 | 3.77 ± 0.38** mg | 39.49 | 0.83 ± 0.16 | 0.79 ± 0.16 | 8.73 ± 1.29 | 42.46 | 0.7605 ± 0.00513 | Swelling degree ([3]; dose 4 mg/kg): 5.07 ± 0.49 mg; Inhibition rate (%) ([5]; dose 0.1 μM): 60.14%**; A570 nm-A630 nm ([5]; dose 0.1 μM): 0.5268 ± 0.06831; Inhibition rate (%) ([5]; dose 0.2 μM): 65.82%*; A570 nm-A630 nm ([5]; dose 0.2 μM): 0.4517 ± 0.03378; Inhibition rate (corneal neovascularization) [6]: 47.13%; MVD (corneal microvessel density) [6]: 35.55 ± 5.717; CNV Incidence (%) [7, 9]: 51.85%; Leakage Light spot number [7, 9]: 154; CNV Incidence (%) [7, 10]: 48.92%; Leakage Light spot number [7, 10]: 91; CNV Incidence (%) [7, 11]: 45.99%; Leakage Light spot number [7, 11]: 63; CNV Incidence (%) [7, 12]: 40.58%; Leakage Light spot number [7, 12]: 28; Area of neovascular plexus (mm^2) [8]: 0.118 ± 0.012 mm^2; Inhibition rate (%) [8]: 44.34%* |
